Experiments:
galectin-3 [1] = target: T1, galectin-3 (Homo sapiens, UniProt P17931); test: Fluorescence anisotropy assay, galectin-3; assay type: binding; conditions: MIC = inhibitor concentration bringing bound probe to 50%; Fig. 4
Protocol: FA was used to analyze interactions of probes and ligands with galectins in solution, as described before ([41][–][44]). A PheraStarFS plate reader, with software PHERAstar Mars version 2.10 R3 (BMG, Offenburg, Germany), was used, and FA of fluorescein-tagged saccharide probes was measured with excitation at 485 nm and emission at 520 nm.
The anisotropy (A) is given in units of mA, where the theoretical maximum is 400, and the value for free fluorescein typically 23. All conditions were measured in at least two duplicate wells.
In this study, the effect of inhibitors of the saccharide probe/galectin interaction was tested in two ways. In the first, a fixed low concentration of fluorescein-tagged probe (0.1 μM) and galectin were mixed with a range of concentrations of inhibitor. An optimal probe was chosen for each galectin to permit use of as low as possible concentration of galectin, while still achieving a sufficient rise in anisotropy for a reliable measuring range ([42][–][44]). […] With structurally defined inhibitors (pure synthetic galacto-oligosaccharides, small galactomannans, and reference ligands) the molecular mass, molar concentrations, and number of binding sites (in this case one binding site per ligand) were known and their dissociation constants (Kd) could therefore be directly calculated, using the data from the FA assay as described in Sörme et al. ([41]). […] Even if the molar concentration of the inhibitor is not known, the anisotropy value at a given condition permits calculation of the molar concentration of free galectin, as described below, and from this what fraction of the galectin is bound by a given mass per volume concentration of inhibitor. From this, the ratio of the molar concentration of the free inhibitor binding sites to their Kd value can be calculated, even if the FA assay cannot distinguish between the case when this is due to a few high affinity binding sites in the polysaccharide fraction or many of low affinity.

galectin-3 [2] = target: T1, galectin-3; test: Galectin-3-induced hemagglutination of hen erythrocytes in V-shaped microplates; assay type: cell-based; conditions: for Estimated MIC, inhibition of galectin-3-induced hemagglutination, V-plate: MIC given as concentration interval
Protocol: Hemagglutination by galectin-3 was investigated in two assays, hemagglutination in V-shaped microplates (96 wells) and hemagglutination in gel cards described by Nowak et al. ([47]) and Lapierre et al. ([48]), respectively. Briefly, fresh hen blood in Alsever's solution was washed with 0.15 M NaCl, whereupon a 4% erythrocyte solution (by volume in PBS) was prepared and incubated with 1 mg/ml trypsin at 37 °C for 1 h. The cells were then washed with 0.15 M NaCl. The erythrocytes were diluted and preserved as a 10% solution in ID-CellStab solution. For the hemagglutination in V-shaped microplates, 1 volume of erythrocyte suspension in PBS (final concentration 0.6%), 1 volume of galectin solution, 1 volume of 0.15 M NaCl with or without the galectin inhibitor, and 1 volume of 1% bovine serum albumin (BSA) in 0.15 M NaCl were added to each well of the microplate. The plate was then shaken vigorously for 90 min at room temperature and then left standing still for at least 90 min before observing the hemagglutination status in each well. […] Each mixture was then transferred to individual gel card wells, whereupon the cards were centrifuged for 10 min at 85 × g in an ID-Centrifuge (DiaMed GmbH) and thereafter photographed and analyzed for hemagglutination.

[3] = tested on: galectin-3 accumulation in JIMT-1 cells; test: Inhibition of GPN-induced galectin-3 accumulation around disrupted lysosomes; assay type: cell-based, human; conditions: 1 or 10 μM for 24 h, then 0.3 mM GPN 12 min, positive control
Protocol: The cells were, after the GPN treatment, quickly washed with PBS and fixed with 3.7% formaldehyde for 15 min before blocking/permeabilization with 1% Tween® 20 and 1–5% BSA in PBS for at least 45 min. […] The cell nuclei were visualized by staining with the DNA-binding fluorescent agent bisbenzimide (Hoechst). The coverslips were finally mounted on glass slides using Mowiol® 4-88 and left at 8 °C overnight to solidify before examination. The samples were imaged with an LSM-510 confocal laser scanning microscope (Carl Zeiss Microscopy GmbH, Oberkochen, Germany) equipped with a Hamamatsu R6357 photomultiplier (Hamamatsu Photonics K.K., Hamamatsu, Japan).

T1 sequence (P17931 whole entry): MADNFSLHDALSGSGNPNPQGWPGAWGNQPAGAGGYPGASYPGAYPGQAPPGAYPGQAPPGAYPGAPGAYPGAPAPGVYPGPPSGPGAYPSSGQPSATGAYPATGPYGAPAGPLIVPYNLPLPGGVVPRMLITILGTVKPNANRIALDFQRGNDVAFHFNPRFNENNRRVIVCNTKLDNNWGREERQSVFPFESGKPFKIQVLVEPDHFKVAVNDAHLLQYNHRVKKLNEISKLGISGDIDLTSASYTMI

slope of MIC versus galectin-3 concentration, FA assay (galectin-3 [1]): around 1
Estimated MIC, inhibition of galectin-3-induced hemagglutination, V-plate (galectin-3 [2]; 1 μM galectin-3): 0.25 to 0.74 µM
Estimated MIC, inhibition of galectin-3-induced hemagglutination, V-plate (galectin-3 [2]; 5 μM galectin-3): 2.22 to 6.67 µM
slope of MIC versus galectin-3 concentration, hemagglutination (galectin-3 [2]; V-shaped microtiter plates, Fig. 4): around 1
Compound: OC[C@H]1O[C@@H](S[C@@H]2O[C@H](CO)[C@H](O)[C@H](n3cc(-c4cccc(F)c4)nn3)[C@H]2O)[C@H](O)[C@@H](n2cc(-c3cccc(F)c3)nn2)[C@H]1O [33DFTG, 3,3′-Dideoxy-3,3′-bis-[4-(3-fluorophenyl)-1H-1,2,3-triazol-1-yl]-1,1′-sulfanediyl-di-β-D-galactopyranoside]
inhibition of GPN-induced galectin-3 accumulation [3]: inhibit the galectin-3 accumulation

From PMC4933242, “Low or No Inhibitory Potency of the Canonical Galectin Carbohydrate-binding Site by Pectins and Galactomannans*” (The Journal of Biological Chemistry, 2016)
